Experimental data published in patent US20220160703A1, “TUMOR-SELECTIVE COMBINATION THERAPY” (The Board of Regents of The University of Texas System, priority 2019, published 2022).

Assays:
A549 tumor = assay: A549 xenograft in immune-reconstituted C57BL/6 Rag1−/− mice; type: in vivo; conditions: β-lap 0.2 mg i.t. four times
Procedure: FIGS. 2A-F. β-Lap's antitumor effect is CD8^+ T cell dependent. (FIG. 2A) MC38 cells were subcutaneously transplanted into C57BL/6 WT (n=5-6/group) and Rag1 KO mice (n=5/group), respectively. Tumor bearing mice were treated with β-lap (0.3 mg, i.t.) every other day for four times. Numbers of tumor free mice after treatment were shown. (FIG. 2B) MC38 tumor bearing C57BL/6 mice (n=5/group) were treated with β-lap (0.3 mg, i.t.) every other day for four times. For CD8^+ T cell depletion, 200 μg of anti-CD8 antibodies were intraperitoneally injected four times at three days interval during the treatment. (FIG. 2C) TC-1 tumor bearing C57BL/6 mice (n=4-5/group) were treated with β-lap (0.1 mg, i.t.) for four times with or without anti-CD8 antibodies. (FIG. 2D) Naïve (n=5/group) and β-lap cured MC38 tumor free (n=7/group) C57BL/6 mice were rechallenged subcutaneously with 3×10^6 MC38 cells on the opposite site from the primary tumor 30 days after complete rejection, and tumor growth curve was monitored. […] Tumor growth was measured twice a week. Data are shown as mean±SEM from three independent experiments. **P<0.01, ***P<0.001, ****P<0.0001 determined by two-way ANOVA.
Immune reconstituted mouse models. […] Tumor volumes were measured at least twice weekly.

MC38 tumor = assay: MC38 subcutaneous syngeneic tumor model; type: in vivo, mice
Procedure: (FIG. 1A) NQO1 positive tumor cell lines MC38, TC-1 and Ag104Ld and NQO1 negative cell lines Panc02 and B16 grown in 48-well plates were treated with β-lap (0-8 μM) for a 3 hr followed by washing and replacing medium. Cell viability was determined by Sulforhodamine B (SRB) Assay 4 days later. […] (FIG. 1C) MC38 cells with CRISPR-based NQO1 Knockout (MC38 NQO1KO #5) planted in 96-well plates were exposed to β-lap for 3 hr and cell survival was assessed 48 hr later. […] (FIG. 1E) MC38 cells were exposed to a lethal dose of β-lap (4 μM) for indicated times, then stained with 7-AAD and Annexin V followed by flow cytometry analysis. […] (FIG. 1H) MC38 and B16 NQO1 #1 cells were exposed to β-lap for a 3 hr. Catalase (1000 U/ml) was added and cell survival was assessed 48 hr later. (FIG. 1I) C57BL/6 mice (n=5/group) were transplanted with MC38 cells and treated with β-lap (0.03 mg, 0.1 mg or 0.3 mg, intratumorally; or 25 mg/kg, i.v.) every other day for four times. (FIG. 1J) C57BL/6 mice were transplanted with MC38 cells (NQO1 WT or KO, n=5/group) and treated with β-lap (0.3 mg, i.t.) every other day for four times. Tumor growth was monitored twice a week.
(FIG. 2A) MC38 cells were subcutaneously transplanted into C57BL/6 WT (n=5-6/group) and Rag1 KO mice (n=5/group), respectively. Tumor bearing mice were treated with β-lap (0.3 mg, i.t.) every other day for four times. […] (FIG. 2B) MC38 tumor bearing C57BL/6 mice (n=5/group) were treated with β-lap (0.3 mg, i.t.) every other day for four times. For CD8^+ T cell depletion, 200 μg of anti-CD8 antibodies were intraperitoneally injected four times at three days interval during the treatment. (FIG. 2C) TC-1 tumor bearing C57BL/6 mice (n=4-5/group) were treated with β-lap (0.1 mg, i.t.) for four times with or without anti-CD8 antibodies. […] (FIG. 2E) 2×10^6 A549 cells were subcutaneously injected into C57BL/6 Rag1^−/− mice (n=5/group for vehicle and β-lap; n=7/group for vehicle+OT-1 and β-lap+OT-1). 30 days later, the mice were i.v. adoptively transfected with 2×10^6 lymph node cells from OT-1 transgenic mice. On the following day, tumor-bearing mice were intratumorally treated with β-lap (0.2 mg) every other day for 4 times. (FIG. 2F) A549 cells were subcutaneously injected into NSG-SGM3 (n=5/group) or NSG-SGM3 harboring human CD34^+ hematopoietic stem cells (n=5/group for Hu-NSG vehicle; n=6/group for Hu-NSG β-lap). Tumor bearing mice were treated with β-lap (0.2 mg, i.t.) every other day for four times. Tumor growth was measured twice a week.
(FIG. 6A) Treatment schema for local β-lap treatment based combinative therapy in FIG. 6B and FIG. 6C. (FIGS. 6B-C) MC38 tumor cells were s.c. inoculated into the flank of C57BL/6 mice (n=5/group). Mice bearing small tumor (about 50 mm^3, B) or advanced tumor (about 150-200 mm^3, FIG. 6C) were locally treated with β-lap (0.3 mg, i.t.) for four times with or without anti-PD-L1 based checkpoint blockage.

## CC1(C)CCC2=C(O1)c1ccccc1C(=O)C2=O [β-lap, β-lapachone]
A549 tumor; no OT-1 LN cells
  tumor growth without T cell transfer: only partially inhibited
A549 tumor; with 2×10^6 OT-1 LN cells
  tumors completely rejected: 50%
MC38 tumor; 3×10^6 MC38 cells, 30 days after complete rejection
  re-challenge of cured mice: rejected the re-challenged tumors
MC38 tumor; Rag1 KO C57BL/6 mice, 0.3 mg i.t. four times
  therapeutic activity in immune-deficient mice: lost therapeutic activity
MC38 tumor; large established tumors (about 150-200 mm^3), β-lap 15 mg/kg i.t. four times, anti-PD-L1 100 μg i.p. three times
  TGI: 59.36%
MC38 tumor; local (intratumoral) β-lap 1.5 mg/kg mg, every other day 4 doses
  Tumor growth inhibition rate (TGI): 11.8%
MC38 tumor; local (intratumoral) β-lap 5 mg/kg, every other day 4 doses
  Tumor growth inhibition rate (TGI): 69.4%
MC38 tumor; local (intratumoral) β-lap 15 mg/kg mg, every other day 4 doses
  Tumor growth inhibition rate (TGI): 89.3%
MC38 tumor; systemic β-lap 25 mg/kg i.v., every other day four times
  Tumor growth inhibition rate (TGI): 62.5%
MC38 tumor; β-lap 0.3 mg i.t. + anti-CD8 200 μg
  antitumor effect with CD8+ T cell depletion: abolished β-lap's antitumor effect
MC38 tumor; β-lap 0.3 mg i.t. + anti-CSF1R Ab 100 μg i.t.
  response with macrophage depletion: did not affect the response
MC38 tumor; β-lap 0.3 mg i.t. + anti-IFNAR1 150 μg i.t.
  therapeutic effect with type I IFN blockade: significantly diminished the therapeutic effect
MC38 tumor; β-lap 0.3 mg i.t. four times
  therapeutic effect in Batf3−/− mice: no therapeutic effect
  tumor regression in Myd88−/− mice: disappeared
